Reference: ChEMBL document CHEMBL1926563, “Synthesis, antimicrobial, antimycobacterial and structure-activity relationship of substituted pyrazolo-, isoxazolo-, pyrimido- and mercaptopyrimidocyclohepta[b]indoles” (2012)
Converted amounts (≈) assume the structure as drawn. The source made the active and inactive calls. The calls are words filed in the database; no cut-off is given here.

How the values were obtained:
[1] = tested on: Mycobacterium tuberculosis; assay: Antimycobacterial activity against Mycobacterium tuberculosis H37Rv after 7 days by resazurin microtiter plate assay; assay type: functional; conditions: 168 h
Staphylococcus aureus [2] = assay: Antibacterial activity against Staphylococcus aureus NCIM 5021 assessed as zone of inhibition at 100 ug/disc after 24 hrs by disk diffusion method; assay type: functional; conditions: NCIM 5021, 24 h, read-out: DIZ
Klebsiella pneumoniae [3] = assay: Antibacterial activity against Klebsiella pneumoniae NCIM 2957 assessed as zone of inhibition at 200 ug/disc after 24 hrs by disk diffusion method; assay type: functional; conditions: NCIM 2957, 24 h, read-out: DIZ
Bacillus subtilis [4] = assay: Antibacterial activity against Bacillus subtilis NCIM 2063 assessed as zone of inhibition at 100 ug/disc after 24 hrs by disk diffusion method; assay type: functional; conditions: NCIM 2063, 24 h, read-out: DIZ
Klebsiella pneumoniae [5] = assay: Antibacterial activity against Klebsiella pneumoniae NCIM 2957 assessed as zone of inhibition at 100 ug/disc after 24 hrs by disk diffusion method; assay type: functional; conditions: NCIM 2957, 24 h, read-out: DIZ
Staphylococcus aureus [6] = assay: Antibacterial activity against Staphylococcus aureus NCIM 5021 assessed as zone of inhibition at 200 ug/disc after 24 hrs by disk diffusion method; assay type: functional; conditions: NCIM 5021, 24 h, read-out: DIZ
Curvularia lunata [7] = assay: Antifungal activity against Curvularia lunata NCIM 716 assessed as zone of inhibition at 100 ug/disc after 48 hrs by disk diffusion method; assay type: functional; conditions: NCIM 716, 48 h, read-out: DIZ
Bacillus subtilis [8] = assay: Antibacterial activity against Bacillus subtilis NCIM 2063 assessed as zone of inhibition at 200 ug/disc after 24 hrs by disk diffusion method; assay type: functional; conditions: NCIM 2063, 24 h, read-out: DIZ
Aspergillus niger [9] = assay: Antifungal activity against Aspergillus niger NCIM 596 assessed as zone of inhibition at 200 ug/disc after 48 hrs by disk diffusion method; assay type: functional; conditions: NCIM 596, 48 h, read-out: DIZ
Curvularia lunata [10] = assay: Antifungal activity against Curvularia lunata NCIM 716 assessed as zone of inhibition at 200 ug/disc after 48 hrs by disk diffusion method; assay type: functional; conditions: NCIM 716, 48 h, read-out: DIZ
Fusarium solani [11] = assay: Antifungal activity against Fusarium solani NCIM 1330 assessed as zone of inhibition at 100 ug/disc after 48 hrs by disk diffusion method; assay type: functional; conditions: NCIM 1330, 48 h, read-out: DIZ
Aspergillus niger [12] = assay: Antifungal activity against Aspergillus niger NCIM 596 assessed as zone of inhibition at 100 ug/disc after 48 hrs by disk diffusion method; assay type: functional; conditions: NCIM 596, 48 h, read-out: DIZ
Proteus vulgaris [13] = assay: Antibacterial activity against Proteus vulgaris NCIM 2027 assessed as zone of inhibition at 200 ug/disc after 24 hrs by disk diffusion method; assay type: functional; conditions: NCIM 2027, 24 h, read-out: DIZ
Proteus vulgaris [14] = assay: Antibacterial activity against Proteus vulgaris NCIM 2027 assessed as zone of inhibition at 100 ug/disc after 24 hrs by disk diffusion method; assay type: functional; conditions: NCIM 2027, 24 h, read-out: DIZ
Fusarium solani [15] = assay: Antifungal activity against Fusarium solani NCIM 1330 assessed as zone of inhibition at 200 ug/disc after 48 hrs by disk diffusion method; assay type: functional; conditions: NCIM 1330, 48 h, read-out: DIZ
[16] = tested on: Mycobacterium tuberculosis; assay: Antimycobacterial activity against Mycobacterium tuberculosis H37Rv at 1.5 to 50 ug/ml after 7 days by resazurin microtiter plate assay; assay type: functional, organism-based

SMILES	MIC [1] [µg/mL]	zone of inhibition at 100 µg/disc (Staphylococcus aureus [2]) [mm]	zone of inhibition at 200 µg/disc (Klebsiella pneumoniae [3]) [mm]	zone of inhibition at 100 µg/disc (Bacillus subtilis [4]) [mm]	zone of inhibition at 100 µg/disc (Klebsiella pneumoniae [5]) [mm]	zone of inhibition at 200 µg/disc (Staphylococcus aureus [6]) [mm]	zone of inhibition at 100 µg/disc (Curvularia lunata [7]) [mm]	zone of inhibition at 200 µg/disc (Bacillus subtilis [8]) [mm]	zone of inhibition at 200 µg/disc (Aspergillus niger [9]) [mm]	zone of inhibition at 200 µg/disc (Curvularia lunata [10]) [mm]	zone of inhibition at 100 µg/disc (Fusarium solani [11]) [mm]	zone of inhibition at 100 µg/disc (Aspergillus niger [12]) [mm]	zone of inhibition at 200 µg/disc (Proteus vulgaris [13]) [mm]	zone of inhibition at 100 µg/disc (Proteus vulgaris [14]) [mm]	zone of inhibition at 200 µg/disc (Fusarium solani [15]) [mm]	MIC [16]
Cc1ccc2c3c([nH]c2c1)-c1nocc1CCC3	25 (≈ 105 µM)	–	–	–	–	–	–	–	–	–	–	–	–	–	–	–
O=C1/C(=C/O)CCCc2c1[nH]c1ccccc21	50 (≈ 220 µM)	24	26	26	24	26	24	27	25	25	21	23	25	23	23	–
Cc1ccc2[nH]c3c(c2c1)CCCc1cnc(O)nc1-3	50 (≈ 188 µM)	23	23	21	21	25	18	24	18	21	14	15	21	19	19	–
Cc1cccc2c3c([nH]c12)-c1nc(O)ncc1CCC3	–	–	–	–	–	–	–	–	–	–	–	–	–	–	–	inactive
Cc1cccc2c3c([nH]c12)-c1c(cnn1-c1ccccc1)CCC3	25 (≈ 79.8 µM)	–	–	–	–	–	–	–	–	–	–	–	–	–	–	–
Cc1ccc2c3c([nH]c2c1)-c1nc(O)ncc1CCC3	–	–	–	–	–	–	–	–	–	–	–	–	–	–	–	inactive
Sc1ncc2c(n1)-c1[nH]c3ccccc3c1CCC2	–	11	11	12	9	13	13	14	13	16	11	10	10	8	14	inactive
Oc1ncc2c(n1)-c1[nH]c3ccccc3c1CCC2	–	25	24	27	22	28	16	29	15	18	13	11	23	21	16	inactive
Cc1ccc2[nH]c3c(c2c1)CCCc1cnn(-c2ccccc2)c1-3	–	27	28	29	26	30	31	31	30	31	30	29	23	21	34	inactive
c1ccc(-n2ncc3c2-c2[nH]c4ccccc4c2CCC3)cc1	–	25	24	24	21	27	29	26	30	31	28	26	23	20	33	inactive
Cc1ccc2c3c([nH]c2c1)-c1c(cnn1-c1ccccc1)CCC3	25 (≈ 79.8 µM)	–	–	–	–	–	–	–	–	–	–	–	–	–	–	–
Cc1ccc2[nH]c3c(c2c1)CCCc1conc1-3	50 (≈ 210 µM)	29	29	30	26	31	29	32	31	32	31	28	28	26	34	–
c1ccc2c3c([nH]c2c1)-c1nocc1CCC3	–	26	27	26	25	27	28	29	29	30	28	26	25	24	31	inactive
Cc1cccc2c3c([nH]c12)-c1n[nH]cc1CCC3	25 (≈ 105 µM)	–	–	–	–	–	–	–	–	–	–	–	–	–	–	–
Cc1ccc2[nH]c3c(c2c1)CCCc1cnc(S)nc1-3	50 (≈ 178 µM)	13	12	14	11	15	16	16	16	20	13	14	12	10	16	–
O=C1/C(=C/O)CCCc2c1[nH]c1ccc(Cl)cc21	25 (≈ 95.5 µM)	31	30	28	28	33	27	32	31	30	29	25	28	25	30	–
Cc1ccc2[nH]c3c(c2c1)CCC/C(=C\O)C3=O	25 (≈ 104 µM)	26	28	28	25	29	26	30	27	28	23	23	25	22	26	–
Cc1cccc2c3c([nH]c12)-c1nocc1CCC3	25 (≈ 105 µM)	–	–	–	–	–	–	–	–	–	–	–	–	–	–	–
Cc1ccc2[nH]c3c(c2c1)CCCc1c[nH]nc1-3	50 (≈ 211 µM)	30	30	31	28	32	33	33	34	36	34	31	25	24	37	–
Cc1cccc2c3c([nH]c12)-c1nc(S)ncc1CCC3	50 (≈ 178 µM)	–	–	–	–	–	–	–	–	–	–	–	–	–	–	–
Cc1ccc2c3c([nH]c2c1)-c1n[nH]cc1CCC3	25 (≈ 105 µM)	–	–	–	–	–	–	–	–	–	–	–	–	–	–	–
Cc1cccc2c3c([nH]c12)C(=O)/C(=C/O)CCC3	50 (≈ 207 µM)	–	–	–	–	–	–	–	–	–	–	–	–	–	–	–
Cc1ccc2c3c([nH]c2c1)-c1nc(S)ncc1CCC3	50 (≈ 178 µM)	–	–	–	–	–	–	–	–	–	–	–	–	–	–	–
Cc1ccc2c3c([nH]c2c1)C(=O)/C(=C/O)CCC3	–	–	–	–	–	–	–	–	–	–	–	–	–	–	–	inactive
